Source: publication PMC8022858, “Discovery of bone morphogenetic protein 7-derived peptide sequences that attenuate the human osteoarthritic chondrocyte phenotype” (Molecular Therapy. Methods & Clinical Development, 2021)

Test system: human OA knee cartilage explants
Assay: GAG release in medium from cartilage explants
Type: cell-based
Details: n = 5 donors, 24 h, relative to control (Figure 6B)
Protocol: To determine whether peptide p[63−82] has the potency to alter chondrocyte behavior in cartilage tissue, rather than isolated HACs, cartilage biopsies from OA knees were cultured in the presence of peptide p[63−82], alongside its scrambled version and full-length BMP7.
Figure 6 Peptide p[63−82] activity on OA knee joint tissues Human OA knee joint tissues were cultured for 24 h in the presence of BMP7, peptide p[63−82], or the scrambled version of peptide p[63−82] and compared to control conditions. (A) Cartilage tissues (n = 7 individual donors) were exposed to shown conditions and analyzed for COL2A1, COL10A1, and COX-2 mRNA expression by quantitative real-time PCR (normalized for 28S rRNA expression and relative to control conditions). (B) GAG release in medium from cartilage tissues (n = 5 individual donors) was determined, and data were calculated relative to the control condition. (C) PGE2 levels in culture supernatant from synovium (n = 5 donors). (D) PGE2 levels in culture supernatant from cartilage tissues from (B) (n = 5 donors). (E) PGE2 levels in culture supernatant from IPFP (n = 5 donors). (F) PGE2 levels in culture supernatant from the meniscus. […] PGE2 levels in conditions were calculated relative to controls for each donor. […] Statistical differences (unpaired two-tailed Student’s t test) were calculated to control condition: ∗p < 0.05, ∗∗p < 0.01, and ∗∗∗p < 0.001. […]

BMP7: full-length recombinant bone morphogenetic protein 7 (R&D Systems), used at 1 nM
sGAG release from cartilage explants: no inhibitory effect

H-AAYYSEGESAFPLNSYMNAT-OH [p[63−82]]
sGAG release from cartilage explants: no inhibitory effect
